Experimental data: patent publication US20070098649A1, “Method and composition for controlling oral pathogens” (priority 2004, published 2007)
Where a name gives a salt, the structure may show the parent alone. Read-outs that look alike come from different tables or passages of the source. Marks after values point to notes of the source that are not given here. Blank lines part the entries; values can stand above or below the compound they belong to.

How the values were obtained:
[1] = test system: Fusobacterium nucleatum; assay: MIC microdilution assay; assay type: cell-based; settings: F. nucleatum
[2] = test system: Actinobacillus actinomycetemcomitans; assay: MIC microdilution assay; assay type: cell-based; settings: for MIC: Aggregatibacter actinomycetemcomitans
[3] = test system: Streptococcus mutans; assay: MIC microdilution assay; assay type: cell-based; settings: S. mutans; for MIC: Streptococcus mutans
[4] = test system: Porphymonas gingivalis; assay: MIC microdilution assay; assay type: cell-based; settings: P. gingivalis; for MIC: Porphyromonas gingivalis
[5] = test system: Streptococcus gordonii; assay: MIC microdilution assay; assay type: cell-based; settings: S. gordonii
[6] = test system: Staphylococcus aureus; assay: Combination determination (FIC, MIC in combination); assay type: cell-based; settings: S. aureus
Protocol: (§1) The alkaloids were tested in pair-wise combinations (fractional inhibitory concentrations, FIC) against all the bacteria to determine whether interactions were antagonistic (FIC>1), additive (0.5<FIC<1), or synergistic (FIC<0.5). The FIC was calculated by the following: (MIC Acombination/MIC Aalone)+(MIC Bcombination/MIC Balone). Where A represents compound 1 and B represents compound 2. […] In the case of A. actinomycetemcomitans and P. aeruginosa, CHX was used at 0.78 to 50 μg ml^−1. Berberine (B-CG and B-S) was used at concentrations 0.9 to 250 μg ml^−1. The antibacterial efficacy of berberine (1.95 to 500 μg ml^−1) was tested in combination against P. aeruginosa with CHX (0.78 to 50 μg ml^−1) (Sigma Chemicals) and the polymyxin antibiotic Col (0.04 to 25 μg ml^−1) (Sigma Chemicals). The plates were incubated for 24 hours.

[7] = test system: Fusobacterium nucleatum; assay: as above; assay type: cell-based; settings: F. nucleatum; berberine (B-CG) combined with CHX, Tet or Dox; MIC of the named agent in the combination
Protocol: as §1

[8] = test system: Streptococcus gordonii; assay: as above; assay type: cell-based; settings: S. gordonii; berberine (B-CG) combined with CHX, Tet or Dox; MIC of the named agent in the combination
Protocol: as §1

[9] = test system: Porphymonas gingivalis; assay: as above; assay type: cell-based; settings: P. gingivalis; berberine (B-CG) combined with CHX, Tet or Dox; MIC of the named agent in the combination
Protocol: as §1

[10] = test system: Escherichia coli; assay: as above; assay type: cell-based; settings: E. coli
Protocol: as §1

[11] = test system: Actinobacillus actinomycetemcomitans; assay: as above; assay type: cell-based; settings: A. actinomycetemcomitans grown under anaerobic conditions; berberine (B-CG) combined with CHX, Tet or Dox; MIC of the named agent in the combination
Protocol: as §1

[12] = test system: Escherichia coli; assay: MIC microdilution assay; assay type: cell-based; settings: E. coli, agent alone, read-out: MIC of the antimicrobial agents alone
[13] = test system: Streptococcus mutans; assay: Combination determination (FIC, MIC in combination); assay type: cell-based; settings: S. mutans; berberine (B-CG) combined with CHX, Tet or Dox; MIC of the named agent in the combination
Protocol: as §1
CHX was diluted from left to right at 10 to 0.08 μg ml^−1 ([…] 1 to 8), berberine was diluted from top to bottom at 250 to 0.09 μg ml^−1 ([…] 1 to 8). Column 9 was the cell control, column 10 was berberine alone (250 to 0.09 μg ml^−1); and column 11 was CHX alone (10 to 0.08 μg ml^−1). Row H was the solvent control (8% DMSO, H1 to H8). Column 12 was the media blank. The dilution assay was designed such that A1 contained the highest concentration of both agents (berberine 250 μg ml^−1 and CHX 10 μg ml^−1). The final concentration of berberine in wells A2 to A8 was […]. The FIC value was calculated from well C6. FIC was calculated by: (MIC Acombination/MIC Aalone)+(MIC Bcombination/MIC Balone).

[14] = test system: oral pathogens; assay: Combination determination, statements on the oral pathogens; assay type: cell-based; settings: berberine hydrochloride / berberine (B-CG and B-S)
Protocol: as §1

[15] = test system: Staphylococcus aureus; assay: MIC microdilution assay; assay type: cell-based; settings: S. aureus, agent alone, read-out: MIC of the antimicrobial agents alone
[16] = test system: S. aureus, E. coli, P. aeruginosa, and S. sanguis; settings: isolated from H. canadensis; cited from earlier work
[17] = test system: Pseudomonas aeruginosa; assay: MIC microdilution assay; assay type: cell-based; settings: P. aeruginosa; agent alone
[18] = test system: Pseudomonas aeruginosa; assay: Combination determination (FIC, MIC in combination); assay type: cell-based; settings: P. aeruginosa
Protocol: as §1

[19] = berberine (B-CG) combined with CHX, Tet or Dox, MIC of the named agent in the combination
[20] = berberine hydrochloride / chloride
[21] = agent alone, read-out: MIC of the antimicrobial agents alone

Compound: COc1cc2c(cc1O)[C@@H]1Cc3ccc(OC)c(OC)c3CN1CC2 [Isocorypalamine, isocorypalmine]
MIC of Goldenseal Alkaloids Against Selected Oral Pathogens ([1]; Fn): >125 µg/mL
MIC of Goldenseal Alkaloids Against Selected Oral Pathogens ([2]; Aa, A. actinomycetemcomitans): >125 µg/mL
MIC of Goldenseal Alkaloids Against Selected Oral Pathogens ([3]; Sm): >125 µg/mL
MIC of Goldenseal Alkaloids Against Selected Oral Pathogens ([4]; Pg): >125 µg/mL
MIC of Goldenseal Alkaloids Against Selected Oral Pathogens ([5]; Sg): >125 µg/mL

Compound: CN(C)[C@@H]1C(O)=C(C(N)=O)C(=O)[C@@]2(O)C(O)=C3C(=O)c4c(O)cccc4[C@@](C)(O)[C@H]3C[C@@H]12 [Tet, tetracycline HCl]
MIC ([1]; Fusobacterium nucleatum, agent alone, read-out: MIC of the antimicrobial agents alone): 0.16 µg/mL
MIC ([2]; A. actinomycetemcomitans grown under anaerobic conditions, agent alone, read-out: MIC of the antimicrobial agents alone): 25 µg/mL
MIC of the antimicrobial agents in combination [6, 19]: 0.39 µg/mL
Growth inhibition effect when combined with berberine [6, 20]: synergistic
MIC of the antimicrobial agents in combination [7]: 0.02 µg/mL
MIC of the antimicrobial agents in combination [8]: 0.08 µg/mL
MIC of the antimicrobial agents in combination [9]: 0.01 µg/mL
MIC of the antimicrobial agents in combination [10, 19]: 1.53 µg/mL
Growth inhibition effect when combined with berberine [10, 20]: synergistic
MIC of the antimicrobial agents in combination [11]: 12.5** μg ml^−1
MIC [3, 21]: 1.56 µg/mL
MIC [4, 21]: 0.08 µg/mL
MIC [12]: 3.06 µg/mL
MIC of the antimicrobial agents in combination [13]: 0.20 µg/mL
Growth inhibition effect when combined with berberine [14]: synergistic
MIC ([5]; Streptococcus gordonii, agent alone, read-out: MIC of the antimicrobial agents alone): 0.31 µg/mL
MIC [15]: 1.53 µg/mL

Concentration without antimicrobial activity (MIC bound) ([2]; A. actinomycetecomitans): ≥ 300 μml^−1
MIC ([2]; A. actinomycetemcomitans, read-out: Concentration without growth inhibition (MIC bound)): > 300 µg/mL
Concentration without growth inhibition (MIC bound) ([3]; growth hindered, but not inhibited at lower concentrations): greater than 300 μml^−1
MIC ([3]; growth limited but not inhibited at lower concentrations, text b118, read-out: Concentration without growth inhibition (MIC bound)): > 300 µg/mL
MIC ([4]; comparable to berberine, read-out: MIC): 17 µg/mL
Compound: COc1ccc2cc3[n+](cc2c1O)CCc1cc2c(cc1-3)OCO2 [berberrubine]

Compound: COc1ccc2c(c1OC)C(=O)O[C@@H]2[C@H]1c2cc3c(cc2CCN1C)OCO3 [β-hydrastine]
Antibacterial activity [16]: inactive against all the tested organisms

Compound: colistin sulfate
MIC of the antimicrobial agents alone [17]: 3.13 µg/mL
Interaction when combined with berberine [18]: no clear additive or synergistic effect
MIC of the antimicrobial agents in combination ([18]; berberine combined with CHX or Col, MIC of the named agent in the combination): 1.56 µg/mL
